From patent US10493046B2, “5-hydroxytryptamine 1B receptor-stimulating agent for use as a promoter of satellite cells self-renewal and/or differentiation” (INSTITUT PASTEUR, priority 2015, dated 2019)
“And” between values parts separate entries of the source, which are not always exact repeats. Equal values may be shown once.

How the values were obtained:
satellite cells [1] = assay: FACS-sorted satellite cells in vitro, compound added to the culture medium; type: cell-based, mouse; conditions: for Pax7+ (reserve, self-renewing) cells 14 days post-plating / Pax7 positive cells 4 days post-plating / Cells MyoG+ (Myogenin staining): compound added at 10 μM; for Pax7 positive cells 4 days post-plating: 2.000 cells per cm^2; for Cells MyoG+ (Myogenin staining): after 4 days
Procedure: (§1) Muscle dissection was done as previously described in cold DMEM. Muscles were then chopped with small scissors and put in a 50 ml Falcon tube with collagenase 0.1% and trypsin 0.25% at 37° C. with gentle agitation. After 20 minutes, the supernatant was collected in 20% serum placed on ice, and the collagenase/trypsin solution was added to continue the digestion. Once muscle was completely digested, the solution was filtrated using 40 μm cell strainers. Satellite cells were cultured in 1:1 DMEM-Glutamax (Gibco#41965-039):MCDB201 (Sigma#M6770) containing 20% serum FBS (Biowest S1860). Medium was filtered using 0.22 μm filters. Cells were plated on Matrigel coating (BD Biosciences#354234) and kept in an incubator (37° C., 5% CO2). […] The thus-obtained supernatant replaced FBS in the culture medium; the rest of the medium was unchanged.
Satellite cells were isolated from Tg:Pax7nGFP mice and cells were plated at 2.000 cells per cm^2. After overnight, vortioxetine was added at 10 μM. […] 14 days post-plating, a higher number of reserve cells (Pax7 positive cells that are quiescent in vitro) were detected in the vortioxetine-treated cells (9%±0.7) than in the PBS (3.5%±0.9, p=0.01), and when GR127935 inhibitor was added in vitro the number of reserve cells dropped (3.5%±0.9, p=0.9) (FIG. 11c). […] This difference in expression was lost when SC were plated with the GR127935 5-HT1 BR inhibitor (p=0.4) (FIGS. 11c-e). The positive effects of vortioxetine were lost when GR127935 was added in vitro together with vortioxetine (FIGS. 11c-e). These effects were however persistent when adding the 5-HT2 BR antagonist (FIGS. 11c-e). This means that the positive effects observed when plating vortioxetine in vitro with satellite cells is mediated via the 5HT1B receptor and not 5HT2B.
To test whether, 2 derivatives of vortioxetine, namely histidine-vortioxetine and pyrrolidinium-vortioxetine, could have similar or improved effect compared to the unmodified vortioxetine, the in vitro approach as described in section 2.2.3 above was used and the differentiation cascade of satellite cells was investigated by assessing the expression pattern of Pax7 (a marker of stemness and quiescence) and Myogenin (MyoG, a marker of differentiation) as described above in section 2.2.3. To do so, satellite cells from Tg:Pax7-nGFP were isolated by FACS and plated at 2.000 cells per cm^2 (seeded overnight). The following day, the vortioxetine, its derivatives, or the control PBS was added at 10 μM and the cells were fixed at the indicated time points.

satellite cells [2] = assay: Satellite cell (SC) number in tibialis anterior of treated mice (histological count or FACS cytometry); type: in vivo, mouse; conditions: for Number of satellite cells per TA by cytometry: Tg:Pax7nGFP mice
Procedure: For satellite cell counting, only the tibialis anterior muscle was dissected and digested as described earlier, and the totality of the tube was analysed to assess the number of satellite cells per muscle. FACS analysis was done using a FACSasia (Beckman). All analyses and quantitation were performed using Summit v4.3 software from DakoCytomation and FloJo software. […]
In order to count the number of satellite cells, the tibialis anterior (TA) of Tg:Pax7nGFP mice were digested and analysed by FACS in placebo and vortioxetine (12 days, 20 mg/Kg) treated mice. […] After 3 weeks of vortioxetine treatment, the number of satellite cells was even higher (9351 satellite cells±706, p=0.0079) but no statistically significant differences were found between 12 days and 3 weeks of treatment (p=0.15).

Tibialis anterior = assay: Muscle regeneration after notexin injury of tibialis anterior; type: in vivo, mouse; conditions: antagonist together with fluoxetine; SC, differentiating cells, fiber size, calcium deposits, fibrosis, Gr1 and F4/80 cells
Procedure: Animals were anesthetized with ketamine (Imalgene1000 100 mg/Kg Merial) and Xylazine (Rompun2% 20 mg/Kg Bayer) prior to injury. Animals were hydrated and treated with analgesic (Buprenorphin Axience 0.3 mg/kg) twice a day for 4 d following injury. For the injury, mice were anesthetized as previously described and 10 μl of 12.5 μg/ml Notexin (Lotaxan) was injected in the Tibialis anterior. All protocols were reviewed by the Institut Pasteur, the competent authority, for compliance with the French and European regulations on Animal Welfare and with Public Health Service recommendations. This project has been reviewed and approved (#2013-0044) by the Institut Pasteur ethic committee (C2EA 89-CETEA).
Tibialis anterior (TA) was carefully dissected and snap frozen in liquid-nitrogen-cooled isopentane for a few minutes and stored at −80° C. prior to cryosectioning (10 μm sections). Sections were kept at room temperature overnight before staining. Sections were then rehydrated in PBS for 10 minutes and fixed in 10% formalin for 3 minutes. The sections were then routinely stained with haematoxylin and eosin (HE) using an automated stain machine or manually with red sirius.
(§2) Immunostaining was performed on cryosections fixed with 4% paraformaldehyde (PFA EMS#15710) in cold PBS, permeabilized with 0.5% Triton X-100 20 min at room temperature, washed, and blocked with 10% BSA for 30 min. Sections were incubated with primary antibodies overnight at 4° C. (see Table 1 below) and with Alexa-conjugated secondary antibodies 1/250 and Hoechst for 45 minutes. Sections were then analysed using an automated axioscan (Zeiss) or inverted Observer.Z1 Apotome (Zeiss). For apoptosis assessment, cells were collected in 2% serum, spun on polyD-lysine (Sigma-Aldrich#P6407), and immediately fixed with PFA 4%.
For image analysis (fibrosis quantification), ImageJ 1.46r software was using between 10 different photos randomly taken per section and 3 sections minimum per experimental group. The pictures were converted in a binary image and the pixel values then collected. For fibre size, the sections were immunostained with rabbit anti Laminin (Sigma-Aldrich #L9393) diluted at 1/200, overnight at 4° C. Secondary Donkey ant Rabbit 488 (DL488 JacksonImmuno #711486152) were used at 1/200 45 minutes at room temperature. The fibre perimeter was done automatically by using Pixcavator® software.

satellite cells [3] = assay: Satellite cells in vitro in plasma of treated mice (live videomicroscopy, immunostaining); type: cell-based, mouse; conditions: plasma from fluoxetine-treated mice plus MDL100907
Procedure: as §1
Cells isolated by FACS were plated overnight on a 24-well glass bottom plate (P24G-0-10-F; MatTek) coated with matrigel (BD Biosciences#354234) and placed in an incubator in pre-equilibrated medium (1:1 DMEM Glutamax: MCDB [Sigma-Aldrich], 20% FCS (Biowest S1860). The plate was then incubated at 37° C., 5% CO2 (Zeiss, Pecon). A Zeiss Observer.Z1 connected with a LCI PInN 10×/0.8 W phaseII objective and AxioCam camera piloted with AxioVision was used. Cells were filmed for up to 5 days, and images were taken every 30 min with brightfield and phase filters and MozaiX 3×3 (Zeiss). Raw data were transformed and presented as a video.
Those results were confirmed in vitro (FIG. 7a). […] This difference was lost when SC were plated with GR127935 (p=0.4) (FIG. 7e). The faster exit of quiescence and higher division rates were also lost when adding GR127935 in vitro (FIGS. 7f,g). The effects of the plasma from fluoxetine-treated animals were persistent when adding MDL100907 (FIGS. 7b-g).

satellite cells [4] = assay: Satellite cell (SC) number in tibialis anterior of treated mice (histological count or FACS cytometry); type: in vivo, mouse
vessels [5] = assay: Vessel number in tibialis anterior of treated mice (Flk1GFP/+ or CD31 immunostaining); type: in vivo, mouse
Procedure: as §2
Throughout the study, focus was made on the tibialis anterior (TA). In skeletal muscle, SC are central for muscle repair. […] SC are localized close to capillaries and angiogenesis is known to be crucial for muscle repair SC survival with cellular interplays between vessel cells and SC. The number of vessels was therefore quantified. In control Flk1^GFP/+ mouse (placebo), the number of vessels was of 870±213.1 vessels per mm^2 and increased after 3 weeks of I.P treatment (1103±110.2 vessels per mm^2), and even more after 6 weeks (1384±175.3 vessels per mm^2, p=0.008) (FIG. 2e). Neovessels presented with normal histological appearance associating a basal lamina and a permeable lumen sometimes containing red blood cells. […] 841±137 CD31+ cells per mm^2 were counted in the placebo-treated mice vs. 2260±361 CD31+ cells per mm^2 in the fluoxetine-treated mice, p=0.008 (FIG. 2t-v), confirming the previous observation.
In order to investigate the effect of vortioxetine on vessels number, intra peritoneal (I.P) administration of 20 mg/kg of vortioxetine was performed for either 12 days, 3 or 6 weeks to C57Bl/6 mice (FIG. 10a). The number of CD31+ cells was counted by immunostaining. The number of vessels in the placebo is (863.5±115.6 vessels per mm^2) and increases after 12 days of I.P treatment (2274±926 vessels per mm^2, p=0.03), and even more after 3 weeks (2847±705 vessels per mm^2, p=0.02) (FIG. 10b). However, there was no statistically significant differences between 12 days and 3 weeks of treatment (p=0.49). Neovessels display a normal histological appearance associated with a basal lamina and a permeable lumen sometimes containing red blood cells. The daily administration of vortioxetine IP might cause unwanted peritoneal inflammation that could interfere with angiogenesis since inflammation and neovascularization are intertwined in some models. Vortioxetine was therefore administered per os (P.O) for 12 days: a similar increase in the number of vessels was observed (2451±595 vessels per mm^2 p=0.028, FIG. 10c). To further confirm those results, vortioxetine will be administered to Flk1^GFP/+ mice P.O and I.P for 12 days, and an ex vivo Matrigel angiogenesis assay and plasma from vortioxetine treated mice will be used on HUVEC (endothelial cells).

vessels [6] = assay: as above; type: in vivo, mouse; conditions: vortioxetine I.P 12 days and PBS in osmotic pump

For `CCCOc1ccc2[nH]cc(C3=CCNCC3)c2n1` [5-HT1B agonist], the “Effect of direct addition on differentiation and self-renewal of SC” value (satellite cells [1]; direct addition in the culture media, Pax7+ and Myogenin+ cells) was “triggered the same effect as the addition of plasma from fluoxetine-treated mice”.
With `COc1cccc([C@H](O)C2CCN(CCc3ccc(F)cc3)CC2)c1OC` [MDL100907] the “Inhibition of vortioxetine effects on vessels and SC number by the antagonist” value (satellite cells [2]; MDL100907 together with vortioxetine) was “No inhibition of vortioxetine effects was observed”, the “Effect of the antagonist on the beneficial effects of fluoxetine after injury” value (Tibialis anterior) was “did not suppress the beneficial effects of fluoxetine” and the “Effects of the plasma from fluoxetine-treated animals when adding MDL100907” value (satellite cells [3]) was “persistent”. For the same molecule, the “Effects of vortioxetine when adding the 5-HT2 BR antagonist” value (satellite cells [1]; 5-HT2 BR antagonist together with vortioxetine 10 μM) was “persistent” and the “Inhibition of fluoxetine effects on SC and vessel number by the antagonist” value (satellite cells [4]; antagonist together with fluoxetine treatment) was “no inhibition of fluoxetine effects were observed”.
In the case of `Cc1ccc(Sc2ccccc2N2CC[N+]3(CCCC3)CC2)c(C)c1` [pyrrolidinium-vortioxetine], the “Number of SCs in the TA vs PBS” value (satellite cells [2]; 20 mg/Kg IP for 12 days, TgPax7nGFP mice) is reported as “doubling”, the “Increase in number of self-renewing cells compared with vortioxetine alone” value (satellite cells [1]; 10 μM, 14 days post-plating) is reported as 20% and the “Pax7+ (reserve, self-renewing) cells 14 days post-plating” value (satellite cells [1]) is reported as 12.5±1.9%. For the same molecule, the “Pax7 positive cells 4 days post-plating” value (satellite cells [1]) was 25.25±4% and the “Cells MyoG+ (Myogenin staining)” value (satellite cells [1]) was 19.75±0.47%.
In the case of `Cc1ccc(Sc2ccccc2N2CCNCC2)c(C)c1` [vortioxetine, 1-[2-(2,4-Dimethylphenylsulfanyl)phenyl]piperazine], the “Number of satellite cells per TA by cytometry” value (satellite cells [2]; vortioxetine 3 weeks) is reported as 9351 satellite cells, the “Number of satellite cells per TA by cytometry” value (satellite cells [2]; vortioxetine 12 days, 20 mg/Kg) is reported as 8660 satellite cells and the “SC number after P.O administration vs I.P” value (satellite cells [2]; vortioxetine P.O at 20 mg/kg) is reported as “a similar increase in SC number”. For the same molecule, the “Number of vessels (CD31+)” value (vessels [5]; vortioxetine 20 mg/kg I.P, 3 weeks, C57Bl/6 mice) was 2847±705 vessels per mm^2, the “Number of vessels (CD31+)” value (vessels [5]; vortioxetine 20 mg/kg I.P, 12 days, C57Bl/6 mice) was 2274±926 vessels per mm^2 and the “Number of vessels (CD31+)” value (vessels [5]; vortioxetine per os (P.O), 12 days) was 2451±595 vessels per mm^2. The “Pax7+ (reserve, self-renewing) cells 14 days post-plating” value (satellite cells [1]) was 9% and 10.5±0.65%, the “Pax7 positive cells 4 days post-plating” value (satellite cells [1]) was 23% and 23.7±2.78% and the “Cells MyoG+ (Myogenin staining)” value (satellite cells [1]) was 34.5±2.5%. For the same molecule, the “MyoD (activation marker) expression between conditions” value (satellite cells [1]; vortioxetine 10 μM vs PBS vs GR127935) was “did not differ at any time investigated”, the “Myogenin (MyoG) expression increase” value (satellite cells [1]; vortioxetine 10 μM, 4 days post-plating) was 2 times increase and the “SC increase by histological count on TA sections” value (satellite cells [4]; vortioxetine 12 days, 20 mg/Kg) was “two-fold increase”. The Number of vessels (vessels [6]) was 2274±926 vessels per mm^2.
